Assay results as given in ChEMBL document CHEMBL4184276, “Curcumin inspired 2-chloro/phenoxy quinoline analogues: Synthesis and biological evaluation as potential anticancer agents” (Bioorg Med Chem Lett, 2018).
The source made the active and inactive calls. No cut-off for these calls is given here.

Legend:
PC-3 [1] = assay: Cytotoxicity against human PC3 cells assessed as reduction in cell viability after 48 hrs by MTT assay; assay type: functional, cell-based; details: PC-3, 48 h
HeLa = assay: Cytotoxicity against human HeLa cells assessed as reduction in cell viability after 48 hrs by MTT assay; assay type: functional, cell-based
HGC-27 = assay: Cytotoxicity against human HGC27 cells assessed as reduction in cell viability after 48 hrs by MTT assay; assay type: functional, cell-based; details: HGC-27, 48 h
NCI-H460 [2] = assay: Cytotoxicity against human NCI-H460 cells assessed as reduction in cell viability after 48 hrs by MTT assay; assay type: functional, cell-based; details: NCI-H460, 48 h
4T1 = assay: Cytotoxicity against mouse 4T1 cells assessed as reduction in cell viability after 48 hrs by MTT assay; assay type: functional, cell-based; details: 4T1, 48 h
DU-145 [3] = assay: Cytotoxicity against human DU145 cells assessed as reduction in cell viability after 48 hrs by MTT assay; assay type: functional, cell-based; details: DU-145, 48 h
[4] = Aqueous solubility in milli-Q water at 2 mg incubated for 5 mins followed by sonication for 1 mins measured after 24 hrs by UV-Visible spectroscopic method; assay type: physicochemical
PC-3 [5] = assay: Induction of apoptosis in human PC3 cells assessed as early apoptotic cells at 2 uM after 24 hrs by Annexin V-FITC/propidium iodide staining based flow cytometry (reference value: 7.1%); assay type: functional
NCI-H460 [6] = assay: Potency index, ratio of curcumin IC50 to compound IC50 for human NCI-H460 cells; assay type: functional
PC-3 [7] = assay: Induction of apoptosis in human PC3 cells assessed as late apoptotic cells at 4 uM after 24 hrs by Annexin V-FITC/propidium iodide staining based flow cytometry (reference value: 7.8%); assay type: functional
PC-3 [8] = assay: Cell cycle arrest in human PC3 cells assessed as accumulation at G2/M phase at 2 uM after 24 hrs by propidium iodide staining based flow cytometry (reference value: 34.49%); assay type: functional
PC-3 [9] = assay: Induction of apoptosis in human PC3 cells assessed as chromatin condensation at 1 uM after 24 hrs by acridine orange/ethidium bromide staining based fluorescence microscopic method; assay type: functional, cell-based
PC-3 [10] = assay: Induction of apoptosis in human PC3 cells assessed as non-uniform distribution of chromatin at 2 uM after 24 hrs by acridine orange/ethidium bromide staining based fluorescence microscopic method; assay type: functional, cell-based
DU-145 [11] = assay: Potency index, ratio of curcumin IC50 to compound IC50 for human DU145 cells; assay type: functional
PC-3 [12] = assay: Cell cycle arrest in human PC3 cells assessed as accumulation at sub-G1 phase at 4 uM after 24 hrs by propidium iodide staining based flow cytometry (reference value: 0.43%); assay type: functional
PC-3 [13] = assay: Potency index, ratio of curcumin IC50 to compound IC50 for human PC3 cells; assay type: functional
PC-3 [14] = assay: Induction of apoptosis in human PC3 cells assessed as fragmentation of chromatin at 4 uM after 24 hrs by acridine orange/ethidium bromide staining based fluorescence microscopic method; assay type: functional, cell-based
PC-3 [15] = assay: Cell cycle arrest in human PC3 cells assessed as accumulation at S phase at 2 uM after 24 hrs by propidium iodide staining based flow cytometry (reference value: 9.48%); assay type: functional
PC-3 [16] = assay: Induction of apoptosis in human PC3 cells assessed as condensed and pyknotic nuclei formation at 4 uM after 24 hrs by DAPI staining based fluorescence microscopic method; assay type: functional, cell-based
PC-3 [17] = assay: Cell cycle arrest in human PC3 cells assessed as accumulation at G2/M phase after 24 hrs by propidium iodide staining based flow cytometry; assay type: functional
PC-3 [18] = assay: Induction of apoptosis in human PC3 cells assessed as cell membrane blebbing at 1 uM after 24 hrs by acridine orange/ethidium bromide staining based fluorescence microscopic method; assay type: functional
PC-3 [19] = assay: Cell cycle arrest in human PC3 cells assessed as accumulation at G0/G1 phase at 2 uM after 24 hrs by propidium iodide staining based flow cytometry (reference value: 55.61%); assay type: functional
PC-3 [20] = assay: Induction of apoptosis in human PC3 cells assessed as late apoptotic cells at 2 uM after 24 hrs by Annexin V-FITC/propidium iodide staining based flow cytometry (reference value: 7.8%); assay type: functional
PC-3 [21] = assay: Cell cycle arrest in human PC3 cells assessed as accumulation at sub-G1 phase at 2 uM after 24 hrs by propidium iodide staining based flow cytometry (reference value: 0.43%); assay type: functional
PC-3 [22] = assay: Induction of apoptosis in human PC3 cells assessed as necrotic cells at 2 uM after 24 hrs by Annexin V-FITC/propidium iodide staining based flow cytometry (reference value: 0.28%); assay type: functional
PC-3 [23] = assay: Induction of apoptosis in human PC3 cells assessed as live cells at 2 uM after 24 hrs by Annexin V-FITC/propidium iodide staining based flow cytometry (reference value: 84.82%); assay type: functional
PC-3 [24] = assay: Induction of apoptosis in human PC3 cells assessed as early apoptotic cells at 4 uM after 24 hrs by Annexin V-FITC/propidium iodide staining based flow cytometry (reference value: 7.1%); assay type: functional
PC-3 [25] = assay: Cell cycle arrest in human PC3 cells assessed as accumulation at G0/G1 phase at 4 uM after 24 hrs by propidium iodide staining based flow cytometry (reference value: 55.61%); assay type: functional
PC-3 [26] = assay: Induction of apoptosis in human PC3 cells assessed as necrotic cells at 4 uM after 24 hrs by Annexin V-FITC/propidium iodide staining based flow cytometry (reference value: 0.28%); assay type: functional
PC-3 [27] = assay: Cell cycle arrest in human PC3 cells assessed as accumulation at G2/M phase at 4 uM after 24 hrs by propidium iodide staining based flow cytometry (reference value: 34.49%); assay type: functional
PC-3 [28] = assay: Cell cycle arrest in human PC3 cells assessed as accumulation at S phase at 4 uM after 24 hrs by propidium iodide staining based flow cytometry (reference value: 9.48%); assay type: functional
PC-3 [29] = assay: Induction of ROS generation in human PC3 cells at 1 to 2 uM after 24 hrs by DCFDA staining based flow cytometry; assay type: functional, cell-based
PC-3 [30] = assay: Induction of apoptosis in human PC3 cells assessed as live cells at 4 uM after 24 hrs by Annexin V-FITC/propidium iodide staining based flow cytometry (reference value: 84.82%); assay type: functional

COc1cc(OC)c(/C=C/C(=O)/C=C/c2cc3ccccc3nc2Cl)c(OC)c1
IC50 (PC-3 [1]): > 10 µM | IC50 (HeLa): > 10 µM | IC50 (HGC-27): > 10 µM | IC50 (NCI-H460 [2]): > 10 µM | IC50 (4T1): > 10 µM | IC50 (DU-145 [3]): > 10 µM

COc1ccc(/C=C/C(=O)/C=C/c2cc3ccccc3nc2Oc2ccccc2)cc1OC
IC50 (PC-3 [1]): > 10 µM | IC50 (HeLa): > 10 µM | IC50 (HGC-27): > 10 µM | IC50 (NCI-H460 [2]): > 10 µM | IC50 (4T1): > 10 µM | IC50 (DU-145 [3]): > 10 µM

COc1cc(OC)c(OC)cc1/C=C/C(=O)/C=C/c1cc2ccccc2nc1Cl
solubility [4]: Soluble | IC50 (PC-3 [1]): 3.12 µM | IC50 (HeLa): 5.41 µM | Activity (PC-3 [5]): 6.07% | Ratio IC50 (NCI-H460 [6]): 4.3 | Activity (PC-3 [7]): 29.17% | IC50 (HGC-27): 8.73 µM | Activity (PC-3 [8]): 38.16% | Activity (PC-3 [9]): Active | Activity (PC-3 [10]): Active | Ratio IC50 (DU-145 [11]): 8.3 | Activity (PC-3 [12]): 0.6% | Ratio IC50 (PC-3 [13]): 6 | Activity (PC-3 [14]): Active | Activity (PC-3 [15]): 10.02% | IC50 (NCI-H460 [2]): 3.96 µM | Activity (PC-3 [16]): Active | Activity (PC-3 [17]): Dose-dependent effect | IC50 (4T1): 1.81 µM | Activity (PC-3 [18]): Active | Activity (PC-3 [19]): 50.4% | Activity (PC-3 [20]): 18.51% | Activity (PC-3 [21]): 0.9% | Activity (PC-3 [22]): 2.21% | Activity (PC-3 [23]): 73.21% | Activity (PC-3 [24]): 7.97% | Activity (PC-3 [25]): 46.86% | Activity (PC-3 [26]): 2.8% | Activity (PC-3 [27]): 45.74% | Activity (PC-3 [28]): 6.86% | Activity (PC-3 [29]): Active | Activity (PC-3 [30]): 60.06% | IC50 (DU-145 [3]): 3.99 µM

COc1ccc(/C=C/C(=O)/C=C/c2cc3ccccc3nc2Cl)cc1
IC50 (PC-3 [1]): > 10 µM | IC50 (HeLa): > 10 µM | IC50 (HGC-27): > 10 µM | IC50 (NCI-H460 [2]): > 10 µM | IC50 (4T1): > 10 µM | IC50 (DU-145 [3]): > 10 µM

COc1ccc(OC)c(/C=C/C(=O)/C=C/c2cc3ccccc3nc2Oc2cccc(Cl)c2)c1
IC50 (PC-3 [1]): > 10 µM | IC50 (HeLa): > 10 µM | IC50 (HGC-27): > 10 µM | IC50 (NCI-H460 [2]): > 10 µM | IC50 (4T1): > 10 µM | IC50 (DU-145 [3]): > 10 µM

COc1ccc(/C=C/C(=O)/C=C/c2cc3ccccc3nc2Oc2cccc(Cl)c2)cc1OC
IC50 (PC-3 [1]): > 10 µM | IC50 (HeLa): > 10 µM | IC50 (HGC-27): > 10 µM | IC50 (NCI-H460 [2]): > 10 µM | IC50 (4T1): > 10 µM | IC50 (DU-145 [3]): > 10 µM

COc1ccc(/C=C/C(=O)/C=C/c2cc3ccccc3nc2Cl)c(OC)c1
IC50 (PC-3 [1]): > 10 µM | IC50 (HeLa): > 10 µM | IC50 (HGC-27): > 10 µM | IC50 (NCI-H460 [2]): > 10 µM | IC50 (4T1): > 10 µM | IC50 (DU-145 [3]): > 10 µM

COc1cc(OC)c(/C=C/C(=O)/C=C/c2cc3ccccc3nc2Oc2ccc(Br)cc2)c(OC)c1
IC50 (PC-3 [1]): > 10 µM | IC50 (HeLa): > 10 µM | IC50 (HGC-27): > 10 µM | IC50 (NCI-H460 [2]): > 10 µM | IC50 (4T1): > 10 µM | IC50 (DU-145 [3]): > 10 µM

COc1ccc(/C=C/C(=O)/C=C/c2cc3ccccc3nc2Oc2ccc(Br)cc2)cc1
IC50 (PC-3 [1]): > 10 µM | IC50 (HeLa): > 10 µM | IC50 (HGC-27): > 10 µM | IC50 (NCI-H460 [2]): > 10 µM | IC50 (4T1): > 10 µM | IC50 (DU-145 [3]): > 10 µM

COc1ccc(OC)c(/C=C/C(=O)/C=C/c2cc3ccccc3nc2Oc2ccc(Br)cc2)c1
IC50 (PC-3 [1]): > 10 µM | IC50 (HeLa): > 10 µM | IC50 (HGC-27): > 10 µM | IC50 (NCI-H460 [2]): > 10 µM | IC50 (4T1): > 10 µM | IC50 (DU-145 [3]): > 10 µM

COc1cc(OC)c(/C=C/C(=O)/C=C/c2cc3ccccc3nc2Oc2ccccc2C(C)C)c(OC)c1
IC50 (PC-3 [1]): > 10 µM | IC50 (HeLa): > 10 µM | IC50 (HGC-27): > 10 µM | IC50 (NCI-H460 [2]): > 10 µM | IC50 (4T1): > 10 µM | IC50 (DU-145 [3]): > 10 µM
